Data on three molecules can be found in publication PMC12292862 (Biomedicines, 2025).

One test relates to IL-1α. As to the kind of experiment: Serum IL-1α (ELISA) in carrageenan-injected rats. The test is classed as in vivo, rat. The following applies: compounds 200 mg/kg i.p., indomethacin 10 mg/kg, mean ± SD. The protocol: (§1) The selective pro-inflammatory cytokines were measured quantitatively using rat-specific Enzyme-Linked Immunosorbent Assay (ELISA) kits from Thermo Scientific™ (Waltham, MA, USA) with CAT. No. ERCRP for CRP; from Elabscience with Cat. No. E-EL-R2856 for TNF-α and with Cat. No. E-EL-R0011 for IL-1α; from CUSABIO, Houston, TX, USA, with Cat. No. CSB-E04640r for IL-6; and from My BioSource Co, USA, with Cat. No. MBS825017 for IL-1β, with Cat. No. MBS753621 for rat cyclooxygenase 1, and with Cat. No. MBS266603 for rat cyclooxygenase 2. Meanwhile, an ovine COX inhibitor-screening in vitro assay (item number 760111) was obtained from Cayman Chemical (Ann Arbor, MI, USA). We purchased malondialdehyde (MDA), glutathione (GSH), and superoxide dismutase (SOD) detection kits from Nanjing Jiancheng Bio-Technology Co. Ltd. (Nanjing, China).
(§2) At the end of the experiments, the rats were subjected to anesthesia with chloroform and then sacrificed. Blood was obtained via heart puncture for biochemical analysis. Following the animals’ sacrifice, the paws were taken out, decalcified, and stored in a 10% formalin solution. To prepare the tissue samples, they were sliced into thicknesses of 5 µm. Hematoxylin and eosin dyes were used to create the histology slides, which were then examined using a photomicroscope (Meiji Techno®, Iruma, Japan) for pathological alterations. The presence of inflammation was documented. Protease/phosphatase inhibitor cocktail in cold phosphate-buffered saline (1:4) (pH 7, 0.01 mol/L) (Cat. No. PPC1010, Sigma-Aldrich) was used to homogenize each rat’s paw piece in a glass homogenizer. After filtering and centrifuging the resultant homogenate for five minutes at 5000× g, oxidative stress biomarkers like GSH, SOD, and MDA were measured. The trials were repeated three times.

For a further test, the system named is IL-6. Kind of test: Serum IL-6 (ELISA) in carrageenan-injected rats. It counts as in vivo, rat. Particulars: compounds 200 mg/kg i.p., indomethacin 10 mg/kg, mean ± SD. The protocol: as §1, §2
Another test deals with TNF-α. As to the kind of experiment: Serum TNF-α (ELISA) in carrageenan-injected rats. It counts as in vivo, rat. Particulars: compounds 200 mg/kg i.p., indomethacin 10 mg/kg, mean ± SD. The procedure: as §1, §2
In the next test the test system is malondialdehyde (MDA). As to the kind of experiment: Paw tissue oxidative stress biomarker MDA. It counts as in vivo, rat. Particulars: carrageenan rats, 200 mg/kg i.p. The procedure:
as §1, §2

In another test the test system is rat cyclooxygenase 2. As to the kind of experiment: COX-2 level in carrageenan-injected paw (ELISA). It counts as in vivo. The following applies: compounds 200 mg/kg i.p., indomethacin 10 mg/kg, mean ± SD. The procedure: as §1, with “Meanwhile, an ovine COX inhibitor-screening in vitro assay (item number 760111) was obtained from Cayman Chemical (Ann Arbor, MI, USA).” left out
as §2

For test [1], the system named is superoxide dismutase (SOD). As to the kind of experiment: Paw tissue oxidative stress biomarker SOD. It counts as in vivo, rat. The following applies: carrageenan rats, 200 mg/kg i.p. The procedure:
as §1, §2

The next test concerns glutathione (GSH). As to the kind of experiment: Paw tissue oxidative stress biomarker GSH. The test is classed as in vivo, rat. The following applies: carrageenan rats, 200 mg/kg i.p., result in words. The procedure:
as §1, §2

The subject of the next test is COX-2. Kind of test: In vitro colorimetric COX (ovine) inhibitor-screening assay, COX-2. The test is classed as biochemical. Particulars: ovine COX-2, tested at 50, 100 and 150 µg/mL. The protocol: (§3) The test compounds’ ability to suppress COX-1 and COX-2 was evaluated using a colorimetric COX (ovine) inhibitor-screening method (Cayman Chemical, Item Number 760111). In brief, 150 μL of assay buffer, 10 μL of heme, 10 μL of enzyme (COX-1 or COX-2), and 10 μL of compound (1 mg/mL) make up the reaction mixture. In a final volume of […], the test compounds were evaluated at doses of 50, 100, and 150 μg/mL. The cyclooxygenase peroxidase component is used in the experiment. By monitoring the appearance of oxidized N, N, […] (TMPD) at 590 nm, the peroxidase activity is measured […]. […] The following formula was used to determine the % COX inhibition: The COX inhibition activity percentage is equal to (1 − T/C ×100), where T is the inhibitor well’s absorbance and C is the starting activity’s absorbance at 100% without the inhibitor well.

In a further test the target is T1, COX-1 (Ovis aries, UniProt P05979).
T1 construct: purchased Cayman Chemical 760111
T1 sequence (P05979 25-600): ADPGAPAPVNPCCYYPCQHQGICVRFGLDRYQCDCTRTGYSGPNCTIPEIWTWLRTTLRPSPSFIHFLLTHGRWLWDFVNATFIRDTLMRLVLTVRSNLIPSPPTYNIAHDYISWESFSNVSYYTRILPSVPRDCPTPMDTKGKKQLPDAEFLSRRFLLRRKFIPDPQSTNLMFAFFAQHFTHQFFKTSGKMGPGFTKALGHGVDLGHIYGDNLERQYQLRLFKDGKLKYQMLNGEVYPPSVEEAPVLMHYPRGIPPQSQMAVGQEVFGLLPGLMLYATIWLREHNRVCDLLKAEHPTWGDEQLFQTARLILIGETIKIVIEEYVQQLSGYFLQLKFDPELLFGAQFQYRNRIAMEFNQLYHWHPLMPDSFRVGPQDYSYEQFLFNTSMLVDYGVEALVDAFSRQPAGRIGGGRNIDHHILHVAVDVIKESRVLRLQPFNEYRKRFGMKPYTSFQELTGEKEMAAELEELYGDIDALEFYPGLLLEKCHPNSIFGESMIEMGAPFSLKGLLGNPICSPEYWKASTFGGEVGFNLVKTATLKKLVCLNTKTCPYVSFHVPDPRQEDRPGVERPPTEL
As to the kind of experiment: In vitro colorimetric COX (ovine) inhibitor-screening assay, COX-1. It counts as biochemical. The following applies: ovine COX-1, tested at 50, 100 and 150 µg/mL. The protocol:
as §3

The test system of a further test is CRP. As to the kind of experiment: Serum CRP (ELISA) in carrageenan-injected rats. The test is classed as in vivo, rat. The following applies: compounds 200 mg/kg i.p., indomethacin 10 mg/kg, mean ± SD. The procedure: as §1, §2
For another test, the system named is IL-1β. As to the kind of experiment: Serum IL-1β (ELISA) in carrageenan-injected rats. It counts as in vivo, rat. The following applies: compounds 200 mg/kg i.p., indomethacin 10 mg/kg, mean ± SD. The protocol:
as §1, §2

Where [2] appears, read: listed as compound 3, 200 mg/kg.

Marks after values point to notes of the source that are not given here.

On to `NC1=NC2(CCCCCC2)n2nc(C(=O)Nc3ccc(S(N)(=O)=O)cc3)nc2N1` [Compound 1, 5′-Amino-N-(4-sulfamoylphenyl). -1′H-spiro[cycloheptane-1,7′-[1,2,4]triazolo[1,5-a][1,3,5] -triazine] -2′-carboxamide], for which, in the test on IL-1α, the IL-1α is on record as 56.97 ± 0.79 ^b pg/mL. Further, the IL-6 with IL-6 is listed as 14.44 ± 0.26 ^b pg/mL. Further, the TNF-α in the test on TNF-α is given as 8.27 ± 0.19 ^b pg/mL. Also, in the test on malondialdehyde (MDA), the MDA level entry is given as “notable improvements”. Moreover, the COX-2 level with rat cyclooxygenase 2 worked out at 3.44 ± 0.30 ng/mL. Also, the SOD activity result in [1] is on record as “notable improvements”. Moreover, the GSH concentration result in the test with glutathione (GSH) was “notable improvements”. In addition, the “COX-2 inhibition % (mean activity)” value in the test on COX-2 stood at 98%. Moreover, at COX-1, the “COX-1 inhibition % (mean activity)” value was 70%. For the same molecule, the CRP with CRP is reported as 4.19 ± 0.28 ^b ng/mL. Further, the IL-1β in the test on IL-1β was 64.98 ± 0.30 ^b pg/mL.
With `CC1(C)CC(=O)CC2(C1)N=C(N)Nc1nc(C(=O)Nc3ccc(S(N)(=O)=O)cc3)nn12` (centres unmarked) [Compound 2], in the test on IL-1α, the IL-1α is 62.82 ± 0.94 ^b pg/mL. Moreover, in the test with IL-6, the IL-6 was 16.14 ± 0.16 ^b pg/mL. Also, the TNF-α in the test on TNF-α is 9.38 ± 0.20 ^b pg/mL. In addition, in the test on malondialdehyde (MDA), the MDA level entry is “notable improvements”. This molecule displayed a COX-2 level in the test with rat cyclooxygenase 2 of 4.10 ± 0.09 ng/mL. Also, in test [1], the SOD activity result was “notable improvements”. In the test with glutathione (GSH), the GSH concentration result is “notable improvements”. For the same molecule, the “COX-2 inhibition % (mean activity)” value in the test with COX-2 is recorded as 98%. Further, the “COX-1 inhibition % (mean activity)” value at COX-1 was 69%. In the test on CRP, the CRP is reported as 3.02 ± 0.28 ^b ng/mL. In addition, the IL-1β with IL-1β is listed as 77.98 ± 0.45 ^b pg/mL.
As for `NC1=NC2(c3ccccc3Cc3ccccc32)n2nc(C(=O)Nc3ccc(S(N)(=O)=O)cc3)nc2N1` [Compound 3], in the test on IL-1α, the IL-1α is reported as 40.66 ± 0.43 ^b pg/mL. Moreover, the IL-6 in the test on IL-6 is 11.39 ± 0.23 pg/mL; in the test with IL-6 (listed as C3), 11.39 ± 0.23 ^b pg/mL. Moreover, the TNF-α was 7.16 ± 0.13 pg/mL in the test on TNF-α and 7.16 ± 0.13 ^b pg/mL in the test with TNF-α (listed as C3). Also, the MDA level result was “close to normal” with malondialdehyde (MDA) (200 mg/kg) and 35.71 ± 0.51 nmol/g tissue in the test on malondialdehyde (MDA) (setting [2]). This molecule displayed a COX-2 level in the test with rat cyclooxygenase 2 of 2.22 ± 0.06 ng/mL. The SOD activity entry in test [1] (200 mg/kg) is given as “near-control values”; in test [1] (setting [2]) it was 38.48 ± 0.31 U/mg protein. Further, in the test with glutathione (GSH), the GSH concentration entry is reported as “near-control values”. Besides, the “COX-2 inhibition % (mean activity)” value in the test with COX-2 is 99%. Also, the “COX-1 inhibition % (mean activity)” value at COX-1 is on record as 70%. In addition, the CRP in the test on CRP is 2.20 ± 0.36 ^b ng/mL. Further, the IL-1β in the test with IL-1β is listed as 60.38 ± 0.73 pg/mL; in the test with IL-1β (listed as C3), 60.38 ± 0.73 ^b pg/mL.
